Patent US4404230A, “4-Hydroxy-1,2-Benzisothiazol-3(2H)-one-1,1-dioxides and salts thereof” (priority 1980, dated 1983)

Assays:
mice [1] = test: Effect on motility of mice (sedative and stimulating effect); assay type: in vivo, Chbb:NMRI-mice; conditions: 200 mg/kg p.o.; for % motility: vs control
Experimental: Eight female Chbb:NMRI-mice (SPF) having a body weight from 20 to 26 g were tested in light beam cages after oral administration of the test compound in a suspension of 1% tylose. 30, 90 and 150 minutes after administration of the test compound, their motility was measured for 5 minutes each; a control group received only the solvent (tylose:carboxymethyl cellulose). The change in motility, given in percent with regard to that of the control group, was determined.

[2] = system: Salmonella typhimurium TA 1538; test: Test for mutagenic effects (AMES-system); assay type: cell-based
Experimental: (§1) Compound B was tested according to the AMES-system [Mutation Research 31, 347-364 (1975)] for mutagenic properties. In order to show the whole spectrum of induced molecular DNA-damage (base substitutions, frame-shift mutations, deletions) the auxotrophic bacterial strains Salmonella typhimurium TA 98, TA 100, TA 1535, TA 1537 and TA 1538 were used as genetic indicators.
(§2) The tests for all microorganisms were carried out such that the effect of the test compound on a microsomal enzyme system together with the corresponding co-factors could be tested, and furthermore to determine the effect on enzyme induction. The tests were performed without an activating system and in the presence of an activating system. For the in-vitro-activation S-9 supernatants (fractions of the endoplasmatic reticulum) of normal, i.e. not pretreated rats and of rats induced by aroclor 1254 (500 mg/kg) wer used. For the S-9 induced fraction, 3 different concentrations were tested.
(§3) Compound B was tested at concentrations of 0.25, 2.5, 5 and 10 mg/plate.

[3] = system: Salmonella typhimurium TA 100; test: Test for mutagenic effects (AMES-system); assay type: cell-based
Experimental: as §1, §2, §3

[4] = system: Salmonella typhimurium TA 1535; test: Test for mutagenic effects (AMES-system); assay type: cell-based
Experimental: as §1, §2, §3

[5] = system: Salmonella typhimurium TA 1537; test: Test for mutagenic effects (AMES-system); assay type: cell-based
Experimental: as §1, §2, §3

[6] = system: Salmonella typhimurium TA 98; test: Test for mutagenic effects (AMES-system); assay type: cell-based
Experimental: as §1, §2, §3

[7] = Stability of the solid substance in daylight and at 60° C.; assay type: physicochemical; conditions: daylight and 60° C., absence and presence of light, 4 weeks
Experimental: For the stability test, substance B at a concentration of 1% was dissolved in 0.1 N hydrochloric acid and kept at room temperature for 27 days. […] The solid substance was furthermore tested in daylight and at 60° C. in the absence and in the presence of light for 4 weeks.

mice [8] = test: Ability of mice to hold themselves in rotating cylinders (muscle relaxing and/or ataxic effect); assay type: in vivo, Chbb:NMRI-mice; conditions: 400 mg/kg p.o.; for Animals which fell out: N = 10
Experimental: In analogy to the method described by Young and Lewis [Science 105, 368 (1947)], 10 female Chbb:NMRI-mice (SPF) having a body weight of 20-26 gm were tested to determine whether they were able to hold themselves in rotating cylinders after oral administration of 400 mg/kg of substance in aqua dist. The measurements were carried out 30-60, 90-120, 210-240 and 270-300 minutes after administration.

eye of the rabbit = test: Local compatibility in the eye of the rabbit (mucosa compatibility); assay type: in vivo
Source text: Groups of 4 rabbits each of both sexes were given 1 drop of a 1% solution of substance B in aqua dist. into the conjunctival sack of the eye. […] The second eye of each animal served as control.

[9] = system: Salmonella typhimurium TA 98, TA 100, TA 1535, TA 1537 and TA 1538; test: Test for mutagenic effects (AMES-system), all strains together; assay type: cell-based
Experimental: as §1, §2, §3

beagles = test: Test for subacute toxicity in the dog; conditions: in vivo
Experimental: The test was carried out in each 3 male and 3 female beagles. Over a period of 5 weeks 750 mg/kg of substance B were administered orally.
After the test period of 5 weeks the animals were killed and the same organs as above were taken for histological examination.

mice [10] = test: Effect on the duration of hexobarbital anesthesia in mice; assay type: in vivo, Chbb:NMRI-mice; conditions: 100 mg/kg p.o.
Experimental: According to Winter [Pharmacol. exp. Ther. 94, 7, (1948)], 100 mg/kg of substance B in a suspension of 1% tylose were administered perorally to 10 male Chbb:NMRI-mice (SPF) having a body weight of 20 to 26 gm. A control group received only the suspension agent. After 1 hour all animals were injected i.p. with 80 mg/kg of hexobarbital. The mice were put on a metal plate at 37° C. and the time from the beginning of the loss of the righting reflex until the recurrence of this reflex was measured as the duration of the anesthesia. This time difference was calculated in percent with regard to that of the control group.

rats = test: Ulcerogenic effect in rats; assay type: in vivo, Chbb:THOM-rats; conditions: 200 mg/kg p.o.
Experimental: 200 mg/kg of substance B in 1% tylose suspension were administered perorally to 10 male and female (1:1) Chbb:THOM-rats (SPF) having an approximate body weight of 200 gm. A control group received only the suspension agent. After 4 hours all animals were killed, the stomach was dissected and inspected with regard to lesions of the mucosa.

Aspergillus niger = test: Fungistasis, serial dilution test; assay type: cell-based; conditions: 320 μg/ml
Experimental: (§4) Substance B was tested with regard to its bacteria- and fungi-inhibiting effect by the serial dilution test and agar diffusion test.

[11] = system: Trychophyton mentagrophytes ATCC 9129; test: Fungistasis, serial dilution test; assay type: cell-based; conditions: 320 μg/ml
Experimental: as §4

[12] = system: Candida albicans ATCC 10231; test: Fungistasis, serial dilution test; assay type: cell-based; conditions: 320 μg/ml
Experimental: as §4

[13] = 0.25, 2.5, 5 and 10 mg/plate, with and without activating system

O=C1NS(=O)(=O)c2cccc(O)c21.[Na]
effect on motility of mice (in words) (mice [1]): did not affect the motility of mice
Motility of mice (mice [1]; 30-35 min): 92 ± 21 contacts/animal
% motility (mice [1]; 30-35 min): 102%
Motility of mice (mice [1]; 90-95 min): 84 ± 28 contacts/animal
% motility (mice [1]; 90-95 min): 101%
Motility of mice (mice [1]; 150-155 min): 49 ± 17 contacts/animal
% motility (mice [1]; 150-155 min): 72%
spontaneous mutation rate [2, 13]: did not lead to an increase in the spontaneous mutation rate
frame-shift mutations ([2]; TA 1538): does not induce base substitutions (S. typhimurium TA 1535, TA 100) or frame-shift mutations
spontaneous mutation rate [3, 13]: did not lead to an increase in the spontaneous mutation rate
base substitutions ([3]; TA 100): does not induce base substitutions
spontaneous mutation rate [4, 13]: did not lead to an increase in the spontaneous mutation rate
base substitutions ([4]; TA 1535): does not induce base substitutions
spontaneous mutation rate [5, 13]: did not lead to an increase in the spontaneous mutation rate
frame-shift mutations ([5]; TA 1537): does not induce base substitutions (S. typhimurium TA 1535, TA 100) or frame-shift mutations
spontaneous mutation rate [6, 13]: did not lead to an increase in the spontaneous mutation rate
frame-shift mutations ([6]; TA 98): does not induce base substitutions (S. typhimurium TA 1535, TA 100) or frame-shift mutations
stability of solid substance [7]: No changes could be detected either
effect on holding ability of mice (in words) (mice [8]): does not affect the holding ability of mice
muscle relaxing or coordination inhibiting effect (in words) (mice [8]): no muscle relaxing or coordination inhibiting effect
Animals which fell out (mice [8]; 30-60 min): 2
Animals which fell out (mice [8]; 90-120 min): 2
Animals which fell out (mice [8]; 210-240 min): 1
Animals which fell out (mice [8]; 270-300 min): 0
change in the pupil (eye of the rabbit; 1% solution): no change in the pupil
irritation of the conjunctiva (eye of the rabbit; 1% solution): No irritation of the conjunctiva
change in the pupil (eye of the rabbit; 10%): no change in the pupil
irritation of the conjunctiva (eye of the rabbit; 10%): No irritation of the conjunctiva
incompatibility when dropped into the eye (in words) (eye of the rabbit; rabbit, in vivo): does not show any incompatibility
effect on enzyme induction and the activating fraction upon the reversion rate [9]: No effect on enzyme induction and the activating fraction upon the reversion rate was detected
mutagenicity, overall [9]: not mutagenic
colonies counted on the test plates ([9]; each test strain): showed the normal spontaneous range for each test strain
behavior (beagles): did not show any abnormal behavior
histological examination of organs (beagles): No changes could be observed
spontaneous deaths (beagles): Spontaneous deaths could not be observed
effect on duration of hexobarbital anesthesia (in words) (mice [10]): does not show any effect on the duration of hexobarbital anesthesia
Duration of anesthesia (mice [10]; hexobarbital 80 mg/kg i.p.): 15.65 ± 6.32 min
Duration of anesthesia, % of control (mice [10]; hexobarbital 80 mg/kg i.p.): 106%
ulcerogenic effect (in words) (rats): does not show any ulcerogenic effect in rats
Animals having stomach lesions (rats; 4 hours, N = 10): 0
inhibiting effect (Aspergillus niger): did not show any inhibiting effect
inhibiting effect [11]: did not show any inhibiting effect
inhibiting effect [12]: did not show any inhibiting effect
